Measurements published in patent US9980943B2, “Methods of treating muscular dystrophy” (BOARD OF REGENTS OF THE NEVADA SYSTEM OF HIGHER EDUCATION, …, priority 2013, dated 2018).

Key:
Format in all cases: cell-based, mouse
[1] = test system: β-galactosidase in CMV-LacZ C2C12 myotubes; experiment: CMV-LacZ secondary screen in C2C12 myotubes (β-Gal stabilizing assay); details: for CMV-LACZ in Myotubes, value relative to DMSO: SU9516 analogs, C2C12 CMV-LacZ, N=2; for CMV-LACZ in Myotubes, signal relative to DMSO: C2C12 CMV-LacZ myotubes, fold relative to DMSO
Procedure, shortened: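 Stable CMV-LacZ C2C12 clone; six-point curve 0.5–40 μM; duplicates.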

[2] = test system: β-galactosidase in CMV-LacZ C2C12 myoblasts; experiment: CMV-LacZ secondary screen in C2C12 myoblasts (β-Gal stabilizing assay); details: for CMV-LACZ in Myoblasts, value relative to DMSO: SU9516 analogs, C2C12 CMV-LacZ, N=2; for CMV-LACZ in Myoblasts (β-galactosidase activity relative to DMSO): CMV-LacZ C2C12 myoblasts
Procedure, shortened: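 CMV-LacZ C2C12 line (clonal, FDG-screened); myoblasts/myotubes dosed 0.5–40 μM (0.5, 1, 5, 10, 20, 40 μM); n=2 per point; β-gal stabilization read-out.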

[3] = test system: α7 integrin (LacZ reporter in α7βgal+/− myoblasts); experiment: Myoblast α7+/LacZ integrin FDG assay (Burkin assay in myoblasts, 96-well); details: 96-well; for Burkin Assay in Myoblasts, value relative to DMSO: SU9516 analogs, N=3-6; for Burkin Assay in Myoblasts, signal relative to DMSO: α7+/LacZ myoblasts
[4] = test system: α7 integrin (LacZ reporter in α7+/LacZ myotubes); experiment: Myotube α7 integrin FDG assay (Burkin assay in myotubes, 96-well); details: for Burkin Assay in Myotubes, value relative to DMSO: SU9516 analogs, 96-well, N=3-6

Cc1ncc(/C=C2\C(=O)Nc3ccccc32)[nH]1 [MLS000834757-01]
CMV-LACZ in Myotubes, value relative to DMSO ([1]; 0.5 uM): 1.0238
CMV-LACZ in Myotubes, value relative to DMSO ([1]; 1 uM): 0.8695
CMV-LACZ in Myotubes, value relative to DMSO ([1]; 5 uM): 1.0546
CMV-LACZ in Myotubes, value relative to DMSO ([1]; 10 uM): 1.1047
CMV-LACZ in Myotubes, value relative to DMSO ([1]; 20 uM): 1.0789
CMV-LACZ in Myotubes, value relative to DMSO ([1]; 40 uM): 1.3600
CMV-LACZ in Myoblasts, value relative to DMSO ([2]; 0.5 uM): 1.0367
CMV-LACZ in Myoblasts, value relative to DMSO ([2]; 1 uM): 0.9300
CMV-LACZ in Myoblasts, value relative to DMSO ([2]; 5 uM): 0.9101
CMV-LACZ in Myoblasts, value relative to DMSO ([2]; 10 uM): 1.0942
CMV-LACZ in Myoblasts, value relative to DMSO ([2]; 20 uM): 0.8115
CMV-LACZ in Myoblasts, value relative to DMSO ([2]; 40 uM): 1.1026
Burkin Assay in Myoblasts, value relative to DMSO ([3]; 0.5 uM): 1.0102
Burkin Assay in Myoblasts, value relative to DMSO ([3]; 1 uM): 1.003
Burkin Assay in Myoblasts, value relative to DMSO ([3]; 5 uM): 1.125
Burkin Assay in Myoblasts, value relative to DMSO ([3]; 10 uM): 0.9651
Burkin Assay in Myoblasts, value relative to DMSO ([3]; 20 uM): 1.117
Burkin Assay in Myoblasts, value relative to DMSO ([3]; 40 uM): 1.021
Burkin Assay in Myotubes, value relative to DMSO ([4]; 0.5 uM): 1.019
Burkin Assay in Myotubes, value relative to DMSO ([4]; 1 uM): 0.943
Burkin Assay in Myotubes, value relative to DMSO ([4]; 5 uM): 1.03
Burkin Assay in Myotubes, value relative to DMSO ([4]; 10 uM): 0.9537
Burkin Assay in Myotubes, value relative to DMSO ([4]; 20 uM): 0.9989
Burkin Assay in Myotubes, value relative to DMSO ([4]; 40 uM): 0.9464

NS(=O)(=O)c1ccc(NC(=O)CN2CCc3ccccc32)cc1 [MLS000850522-01]
CMV-LACZ in Myotubes, signal relative to DMSO ([1]; 0.5 uM): 0.8848
CMV-LACZ in Myotubes, signal relative to DMSO ([1]; 1 uM): 0.8933
CMV-LACZ in Myotubes, signal relative to DMSO ([1]; 5 uM): 1.1090
CMV-LACZ in Myotubes, signal relative to DMSO ([1]; 10 uM): 1.0751
CMV-LACZ in Myotubes, signal relative to DMSO ([1]; 20 uM): 1.0580
CMV-LACZ in Myotubes, signal relative to DMSO ([1]; 40 uM): 1.0200
CMV-LACZ in Myoblasts (β-galactosidase activity relative to DMSO) ([2]; 0.5 uM): 0.8880
CMV-LACZ in Myoblasts (β-galactosidase activity relative to DMSO) ([2]; 1 uM): 1.3763
CMV-LACZ in Myoblasts (β-galactosidase activity relative to DMSO) ([2]; 5 uM): 0.8809
CMV-LACZ in Myoblasts (β-galactosidase activity relative to DMSO) ([2]; 10 uM): 0.8671
CMV-LACZ in Myoblasts (β-galactosidase activity relative to DMSO) ([2]; 20 uM): 0.8358
CMV-LACZ in Myoblasts (β-galactosidase activity relative to DMSO) ([2]; 40 uM): 1.0091
Burkin Assay in Myoblasts, signal relative to DMSO ([3]; 0.5 uM): 0.7993
Burkin Assay in Myoblasts, signal relative to DMSO ([3]; 1 uM): 0.9332
Burkin Assay in Myoblasts, signal relative to DMSO ([3]; 5 uM): 1.307
Burkin Assay in Myoblasts, signal relative to DMSO ([3]; 10 uM): 1.003
Burkin Assay in Myoblasts, signal relative to DMSO ([3]; 20 uM): 0.8743
Burkin Assay in Myoblasts, signal relative to DMSO ([3]; 40 uM): 0.8805
Burkin Assay in Myotubes, α7 integrin LacZ reporter signal relative to DMSO ([4]; 0.5 uM): 0.9439
Burkin Assay in Myotubes, α7 integrin LacZ reporter signal relative to DMSO ([4]; 1 uM): 0.9058
Burkin Assay in Myotubes, α7 integrin LacZ reporter signal relative to DMSO ([4]; 5 uM): 1.11
Burkin Assay in Myotubes, α7 integrin LacZ reporter signal relative to DMSO ([4]; 10 uM): 0.9263
Burkin Assay in Myotubes, α7 integrin LacZ reporter signal relative to DMSO ([4]; 20 uM): 0.9416
Burkin Assay in Myotubes, α7 integrin LacZ reporter signal relative to DMSO ([4]; 40 uM): 0.9324

O=c1c2cc(-c3ccccc3)sc2nc2n1N=C(c1ccccc1)CS2 [MLS000858981-01]
CMV-LACZ in Myotubes, signal relative to DMSO ([1]; 0.5 uM): 1.0257
CMV-LACZ in Myotubes, signal relative to DMSO ([1]; 1 uM): 0.8419
CMV-LACZ in Myotubes, signal relative to DMSO ([1]; 5 uM): 1.0786
CMV-LACZ in Myotubes, signal relative to DMSO ([1]; 10 uM): 0.9781
CMV-LACZ in Myotubes, signal relative to DMSO ([1]; 20 uM): 1.0421
CMV-LACZ in Myotubes, signal relative to DMSO ([1]; 40 uM): 1.0000
CMV-LACZ in Myoblasts (β-galactosidase activity relative to DMSO) ([2]; 0.5 uM): 0.9229
CMV-LACZ in Myoblasts (β-galactosidase activity relative to DMSO) ([2]; 1 uM): 0.9696
CMV-LACZ in Myoblasts (β-galactosidase activity relative to DMSO) ([2]; 5 uM): 1.1687
CMV-LACZ in Myoblasts (β-galactosidase activity relative to DMSO) ([2]; 10 uM): 0.9009
CMV-LACZ in Myoblasts (β-galactosidase activity relative to DMSO) ([2]; 20 uM): 0.9985
CMV-LACZ in Myoblasts (β-galactosidase activity relative to DMSO) ([2]; 40 uM): 0.9696
Burkin Assay in Myoblasts, signal relative to DMSO ([3]; 0.5 uM): 0.953
Burkin Assay in Myoblasts, signal relative to DMSO ([3]; 1 uM): 0.999
Burkin Assay in Myoblasts, signal relative to DMSO ([3]; 5 uM): 1.186
Burkin Assay in Myoblasts, signal relative to DMSO ([3]; 10 uM): 1.01
Burkin Assay in Myoblasts, signal relative to DMSO ([3]; 20 uM): 1.0113
Burkin Assay in Myoblasts, signal relative to DMSO ([3]; 40 uM): 1.005
Burkin Assay in Myotubes, α7 integrin LacZ reporter signal relative to DMSO ([4]; 0.5 uM): 1.027
Burkin Assay in Myotubes, α7 integrin LacZ reporter signal relative to DMSO ([4]; 1 uM): 0.8837
Burkin Assay in Myotubes, α7 integrin LacZ reporter signal relative to DMSO ([4]; 5 uM): 1.055
Burkin Assay in Myotubes, α7 integrin LacZ reporter signal relative to DMSO ([4]; 10 uM): 0.8922
Burkin Assay in Myotubes, α7 integrin LacZ reporter signal relative to DMSO ([4]; 20 uM): 0.8526
Burkin Assay in Myotubes, α7 integrin LacZ reporter signal relative to DMSO ([4]; 40 uM): 0.8173
